Reference: paper PMC12016938, “A small molecule PKCε inhibitor reduces hyperalgesia induced by paclitaxel or opioid withdrawal” (JCI Insight, 2025)
Where “and” joins values, the source holds several entries; their conditions need not be identical. Equal entries are not always repeated. Structures can show the parent of a compound that is named as a salt.

Assays:
[1] = tested on: morphine self-administration
ROCK1 = ROCK1 (Homo sapiens, UniProt Q13464); test: Lance-FRET kinase assay, ROCK1; format: biochemical; design: purchased Carna Biosciences; details: mean of all runs (count 42 CP612; 38 CIDD-0072424); 2.5 μM ATP; read-out: IC50 (nM) [Enzyme: ROCK1], mean
Experimental: (§1) Kinase assays. CP612 was assayed against His-AVI–tagged human PKCε (1 nM) produced in Sf9 cells, and ROCK1 (Carna Biosciences; 5 nM) using the Lance-FRET kinase assay system (PerkinElmer Revvity). Other human recombinant PKCs (SignalChem Biotech) were assayed in triplicate at the following concentrations: PKCβII 1.6 nM, PKCγ 500 pM, PKCδ 5 nM, PKCθ 500 pM, and PKCζ 500 pM. PKCs were incubated in a 15 μL reaction volume with kinase buffer (20 mM Tris-HCL [pH 7.4], 10 mM MgCl2, 0.25 mM EGTA, 0.1 mg/mL BSA, and 0.15% Triton X-100), 50 nM ULight-labeled CREBtide […] (PerkinElmer, TRF0107, Revvity), and test compound. […] After incubation at 27°C for another 60 minutes, phosphorylation was detected using a FlexStation 3 Microplate Reader (Molecular Devices) in LANCE TR-FRET mode (excitation = 340 nm, emission = 665 nm) and expressed as relative fluorescence units (RFU). The percentage of inhibition was calculated as: (signal without test compound − signal with test compound)/(signal without test compound − signal without ATP) × 100. […]
(§2) Kinase assays used 11-point concentration-response curves and results were analyzed by nonlinear regression using Prism 9 (GraphPad Software) to determine IC50 values. […] Scores for pain threshold, conditioned place preference, and self-administration were analyzed by ANOVA using the following factors. […]

PKCθ [2] = target: T1, PKCθ (Homo sapiens, UniProt Q04759); test: Lance-FRET kinase assay, PKCθ; format: biochemical; design: purchased SignalChem Biotech
Experimental: as §1, §2

PKCε = target: T2, PKCε (Homo sapiens, UniProt Q02156); test: scanMax kinome panel (Eurofins-DiscoverX), PKCε; format: binding; design: purchased Eurofins-DiscoverX; details: 200 nM CP612
T2 sequence (Q02156 1-737): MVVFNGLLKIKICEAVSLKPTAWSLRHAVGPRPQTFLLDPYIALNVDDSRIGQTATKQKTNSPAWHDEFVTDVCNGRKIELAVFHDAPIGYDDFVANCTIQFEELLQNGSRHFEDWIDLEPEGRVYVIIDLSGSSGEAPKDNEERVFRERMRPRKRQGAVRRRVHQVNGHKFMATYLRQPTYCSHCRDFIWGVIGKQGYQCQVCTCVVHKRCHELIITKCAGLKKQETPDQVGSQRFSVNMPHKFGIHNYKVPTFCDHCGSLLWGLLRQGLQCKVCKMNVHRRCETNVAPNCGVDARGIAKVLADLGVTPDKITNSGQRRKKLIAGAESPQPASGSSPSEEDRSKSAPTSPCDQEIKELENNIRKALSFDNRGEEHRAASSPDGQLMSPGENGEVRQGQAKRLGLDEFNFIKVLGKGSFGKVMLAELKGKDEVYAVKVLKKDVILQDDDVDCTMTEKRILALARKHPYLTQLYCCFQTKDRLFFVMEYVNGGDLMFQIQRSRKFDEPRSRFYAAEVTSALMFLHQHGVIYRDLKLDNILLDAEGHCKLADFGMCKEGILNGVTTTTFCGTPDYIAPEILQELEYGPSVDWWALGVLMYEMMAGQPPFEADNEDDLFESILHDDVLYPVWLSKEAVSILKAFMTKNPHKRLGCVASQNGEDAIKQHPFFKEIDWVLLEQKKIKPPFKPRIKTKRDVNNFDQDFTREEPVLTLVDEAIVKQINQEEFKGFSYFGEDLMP
Experimental: (§3) CP612 was screened for kinome specificity at 200 nM against 468 kinases using the scanMax assay panel from Eurofins-DiscoverX. CP612 inhibited 10 other WT kinases besides PKCε, all to < 10% of control: CLK1 (CDC Like Kinase 1), CLK4, PKN1 (Protein kinase N1), PKN2, PKCδ, PKCη, PKCθ, PRKG2 (Protein Kinase CGMP-Dependent 2), ROCK1, and ROCK2.

CLK1 (CDC Like Kinase 1) = target: T3, CLK1 (CDC Like Kinase 1) (Homo sapiens, UniProt P49759); test: scanMax kinome panel, CLK1; format: binding; details: 200 nM CP612; read-out: scanMax % of control, CLK1
T3 construct: purchased Eurofins-DiscoverX
Experimental: as §3

PKCθ [3] = target: T1, PKCθ; test: scanMax kinome panel, PKCθ; format: binding; design: purchased Eurofins-DiscoverX; details: 200 nM CP612; read-out: scanMax % of control, PKCθ
Experimental: as §3

PKCδ = PKCδ (Homo sapiens, UniProt Q05655); test: Lance-FRET kinase assay, PKCδ; format: biochemical; design: purchased SignalChem Biotech
Experimental: as §1, §2

[4] = tested on: hyperalgesia induced by morphine withdrawal; test: Time course of hyperalgesia induced by morphine withdrawal, von Frey SUDO; details: for von Frey filament number that led to paw withdrawal: single male mouse; for Hyperalgesia after withdrawal from repeated morphine: male C57BL/6J mice, 20–100 mg/kg i.p. twice daily 5 days
Experimental: Mice received repeated injections of saline (10 mL/kg, i.p.) or morphine (20–100 mg/kg, i.p.) twice daily for 5 days, to induce dependence.
Mechanical nociceptive thresholds in mice were quantified using the simplified up-down (SUDO) method with von Frey filaments ([36]). […] The force to bend the filaments ranged from 0.008 g (filament 1) to 6 g (filament 12). Mice were acclimated to the test room and apparatus for 1 hour prior to testing. We started testing mice with filament 5 (bending force 0.16 g) and stepped up or down according to the response of the mouse. The filament that elicited a definite paw withdrawal or notable flinch was recorded. All measures were averaged between both hind paws and are expressed as filament number, which allows for parametric analysis ([36]). The higher the filament number, the higher the pain threshold (and the lower the sensitivity to pain). Prior to starting experiments, baseline threshold levels were obtained 3–4 times at 2- to 5-day intervals on each of the hind paws of the mouse.
Morphine dependence in mice was induced by repeated i.p. injections (10 mL/kg) of morphine administered at increasing doses, over 5 days (day 1: 20 mg/kg, day 2: 40 mg/kg, day 3: 60 mg/kg, day 4: 80 mg/kg, day 5: 100 mg/kg). Injections of each dose were administered twice daily, 6 hours apart.

T1 sequence (Q04759 whole entry): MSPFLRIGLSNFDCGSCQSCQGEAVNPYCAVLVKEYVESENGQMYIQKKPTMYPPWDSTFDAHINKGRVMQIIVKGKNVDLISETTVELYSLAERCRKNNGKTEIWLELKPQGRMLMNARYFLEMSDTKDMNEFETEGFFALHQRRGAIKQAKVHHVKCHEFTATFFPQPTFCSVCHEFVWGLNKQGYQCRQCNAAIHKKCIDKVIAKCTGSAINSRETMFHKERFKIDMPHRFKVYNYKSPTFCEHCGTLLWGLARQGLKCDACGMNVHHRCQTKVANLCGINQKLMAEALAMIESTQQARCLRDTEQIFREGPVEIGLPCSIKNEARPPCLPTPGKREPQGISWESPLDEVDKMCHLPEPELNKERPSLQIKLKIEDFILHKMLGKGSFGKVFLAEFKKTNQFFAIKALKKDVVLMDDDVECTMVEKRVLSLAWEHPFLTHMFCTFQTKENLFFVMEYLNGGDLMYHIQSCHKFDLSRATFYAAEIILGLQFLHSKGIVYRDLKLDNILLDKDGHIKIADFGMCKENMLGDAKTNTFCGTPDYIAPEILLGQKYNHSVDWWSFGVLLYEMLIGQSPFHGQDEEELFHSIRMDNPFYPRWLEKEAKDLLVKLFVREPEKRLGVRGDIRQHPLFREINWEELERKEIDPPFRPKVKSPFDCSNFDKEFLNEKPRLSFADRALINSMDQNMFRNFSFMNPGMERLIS
PKCδ, sequence (Q05655 whole entry): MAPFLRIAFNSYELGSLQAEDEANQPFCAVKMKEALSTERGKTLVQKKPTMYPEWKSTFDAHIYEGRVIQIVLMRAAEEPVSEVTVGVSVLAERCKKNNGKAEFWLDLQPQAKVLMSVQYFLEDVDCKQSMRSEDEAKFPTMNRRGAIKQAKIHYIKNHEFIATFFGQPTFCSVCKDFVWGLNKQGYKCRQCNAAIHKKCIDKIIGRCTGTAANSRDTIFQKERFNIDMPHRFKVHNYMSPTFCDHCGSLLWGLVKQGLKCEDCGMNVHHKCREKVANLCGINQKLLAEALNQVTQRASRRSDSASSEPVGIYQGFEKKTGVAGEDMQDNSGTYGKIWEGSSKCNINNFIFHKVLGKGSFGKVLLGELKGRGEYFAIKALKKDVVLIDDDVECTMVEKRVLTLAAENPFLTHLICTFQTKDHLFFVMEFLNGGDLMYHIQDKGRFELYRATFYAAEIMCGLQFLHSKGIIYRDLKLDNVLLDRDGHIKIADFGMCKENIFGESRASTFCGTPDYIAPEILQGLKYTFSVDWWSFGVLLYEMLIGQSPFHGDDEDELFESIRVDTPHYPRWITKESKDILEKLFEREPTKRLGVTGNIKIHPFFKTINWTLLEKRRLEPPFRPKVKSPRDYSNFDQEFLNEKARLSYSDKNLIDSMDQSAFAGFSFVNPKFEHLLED
ROCK1, sequence (Q13464 1-477 limits assumed): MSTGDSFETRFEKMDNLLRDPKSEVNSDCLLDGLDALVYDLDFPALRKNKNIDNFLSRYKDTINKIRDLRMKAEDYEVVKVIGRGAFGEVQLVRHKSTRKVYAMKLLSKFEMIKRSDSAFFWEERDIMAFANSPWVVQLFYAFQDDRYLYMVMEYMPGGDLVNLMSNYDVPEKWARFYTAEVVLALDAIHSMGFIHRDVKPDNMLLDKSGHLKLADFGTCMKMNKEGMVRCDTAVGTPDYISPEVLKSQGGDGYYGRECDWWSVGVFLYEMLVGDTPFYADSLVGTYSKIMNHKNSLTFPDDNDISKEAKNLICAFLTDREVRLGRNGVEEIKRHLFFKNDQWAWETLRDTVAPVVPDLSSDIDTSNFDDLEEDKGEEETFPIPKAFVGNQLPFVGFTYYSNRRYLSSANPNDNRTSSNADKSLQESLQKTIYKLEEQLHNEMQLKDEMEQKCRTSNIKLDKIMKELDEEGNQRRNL
T3 sequence (P49759 whole entry): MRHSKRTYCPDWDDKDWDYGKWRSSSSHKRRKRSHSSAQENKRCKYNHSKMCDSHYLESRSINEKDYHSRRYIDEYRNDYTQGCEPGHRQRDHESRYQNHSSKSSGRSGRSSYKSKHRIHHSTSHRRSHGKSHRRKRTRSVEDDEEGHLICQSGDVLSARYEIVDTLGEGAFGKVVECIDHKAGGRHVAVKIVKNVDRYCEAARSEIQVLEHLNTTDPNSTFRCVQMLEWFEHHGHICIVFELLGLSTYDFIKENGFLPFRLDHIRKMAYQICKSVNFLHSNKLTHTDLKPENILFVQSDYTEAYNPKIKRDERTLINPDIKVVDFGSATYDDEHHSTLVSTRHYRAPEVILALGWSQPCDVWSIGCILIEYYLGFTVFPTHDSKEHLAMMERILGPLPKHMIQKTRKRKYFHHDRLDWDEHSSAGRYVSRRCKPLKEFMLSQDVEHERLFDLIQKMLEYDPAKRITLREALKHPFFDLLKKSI

Row | Structure (SMILES) | Effect on morphine self-administration (breaking point and self-infusions) ([1]; CP612 30 mg/kg i.p. 18 hours prior, 30 mg/kg) | Inf (avg last 3 days) ([1]; rats, morphine SA 18 h after CP612, average of last 3 days, infusions) | IC50 (ROCK1) [nM] | inhibition at 0.03 µM (PKCθ [2]; 30 nM CP612, read-out: Inhibition of novel PKCs (PKCθ)) [%] | IC50 (PKCθ [2]; Figure 1B PKC isozyme panel) [nM] | scanMax result, PKCε (PKCε) | remaining binding at 0.2 µM (CLK1 (CDC Like Kinase 1)) [%] | remaining binding at 0.2 µM (PKCθ [3]) [%] | inhibition at 0.03 µM (PKCδ; 30 nM CP612, read-out: Inhibition of novel PKCs (PKCδ)) [%] | IC50 (PKCδ; Figure 1B PKC isozyme panel) [nM] | von Frey filament number that led to paw withdrawal ([4]; 1week after last morphine injection) | von Frey filament number that led to paw withdrawal ([4]; 6h after last morphine injection) | von Frey filament number that led to paw withdrawal ([4]; 24h after last morphine injection) | von Frey filament number that led to paw withdrawal ([4]; Baseline) | Hyperalgesia after withdrawal from repeated morphine ([4]; 6 hours after last injection) | Hyperalgesia after withdrawal from repeated morphine ([4]; 24 hours and 1 week after last injection)
1 | N[C@H](CNC(=O)C1(c2ccc(Cl)cc2)CCCC1)c1ccc(C(=O)Nc2ccncc2)cc1 [CP612] | did not modify self-administration | 8 and 12 | 65.9 ± 10.8 | > 50 | 30.7 | inhibited | < 10 | < 10 | > 50 | 18.8 |  |  |  |  |  | 
2 | CN1CC[C@]23c4c5ccc(O)c4O[C@H]2[C@@H](O)C=C[C@H]3[C@H]1C5 [Morphine, Morphine sulfate, reference compound] |  |  |  |  |  |  |  |  |  |  | 5.5 filament number and 7.5 filament number and 6 filament number | 7.5 filament number and 9.5 filament number and 8 filament number and 7 filament number | 5.5 filament number and 6.5 filament number and 6 filament number and 7.5 filament number | 7.5 filament number and 8.5 filament number and 8 filament number and 9.5 filament number | not present | present
